What all share (experiment): NCI-60 cell line screen, 48 h
Assay [1] has as its system NCI-H23.
For assay [2], the system named is EKVX.
In assay [3] the test system is U-251.
Assay [4] deals with K562.
In assay [5] the test system is HOP-62.
Assay [6] deals with HCT-116.
Assay [7] has as its system HL-60.
In assay [8] the test system is DU-145.
For assay [9], the system named is MDA-MB-435.
The test system of assay [10] is MCF7.
Assay [11] has as its system SR.
In assay [12] the test system is CCRF-CEM.
The test system of assay [13] is UACC-257.
Assay [14] concerns 786-0.
Assay [15] concerns SN12C.
Assay [16] has as its system SNB-19.
Assay [17] deals with M14.
The test system of assay [18] is Hs-578T.
Assay [19] has as its system OVCAR-5.
Assay [20] has as its system CAKI-1.

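96-well plates; 48 h exposure; 5 concentrations. Endpoints by linear interpolation between flanking doses. Not reached: highest tested concentration assigned. Abbreviation: GI50, concentration required for 50% inhibition of growth.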 Activity calls are given as the source filed them. No stated cut-off is given here; in the data, active = GI50 up to about 1.1 µM and inactive = higher.

Data on ten molecules can be found in ChEMBL document CHEMBL1201862, “PubChem BioAssay data set” (2004).

For `Cc1ccc(NCCCN2CCN(CCCNc3ccc(C)c4sc5ccccc5c(=O)c34)CC2)c2c(=O)c3ccccc3sc12`, the GI50 is > 100 µM (inactive) in [1]; 86.3 µM (inactive) in assay [2]; 67.6 µM (inactive) in [3]; > 100 µM (inactive) in [4]; > 100 µM (inactive) in assay [5]; > 100 µM (inactive) in assay [6]. Moreover, the GI50 was > 100 µM (inactive) in assay [7]; 71.6 µM (inactive) in assay [8]; > 100 µM (inactive) in assay [9]; > 100 µM (inactive) in assay [10]; > 100 µM (inactive) in assay [11]; > 100 µM (inactive) in assay [12]. Also, the GI50 in [13] is > 100 µM (inactive); in assay [14], 95.5 µM (inactive); in [15], > 100 µM (inactive); in [16] it was > 100 µM (inactive); in assay [17] it was > 100 µM (inactive); in assay [18], 37.2 µM (inactive). Also, the GI50 in assay [19] and in assay [20] was > 100 µM (inactive) each time.

As for `Cn1c(=O)c2c(nc3n(Cc4ccccc4)c(=O)c(NCCBr)cn23)n(C)c1=O`, the GI50 in [1] was 40.4 µM (inactive); in assay [2], 18.5 µM (inactive); in [3], 30.4 µM (inactive); in assay [4] it was 46 µM (inactive); in assay [5], 18.8 µM (inactive); in assay [6], 28.8 µM (inactive). Moreover, the GI50 is 38.8 µM (inactive) in [7]; 27.8 µM (inactive) in assay [8]; 49.5 µM (inactive) in assay [9]; 24.4 µM (inactive) in assay [10]; 6.43 µM (inactive) in [11]; 45.5 µM (inactive) in [12]. The GI50 in assay [13] is 25.7 µM (inactive); in assay [14], 19.3 µM (inactive); in assay [15], 32.6 µM (inactive); in assay [16], 30.4 µM (inactive); in assay [17], 33.1 µM (inactive); in assay [18], 29 µM (inactive). Also, the GI50 in assay [19] was 28.4 µM (inactive); in assay [20] it was 18.5 µM (inactive).

Take `CC1C(=O)OC2CC[N+]3([O-])CC=C(COC(=O)C(C)(O)C1(C)O)C23` (stereo not given): the GI50 in [1], in [2], in [3], in assay [4], in assay [5] and in assay [6] was > 100 µM (inactive) each time. The GI50 in assay [7] was > 100 µM (inactive); in [8], > 100 µM (inactive); in assay [9], > 100 µM (inactive); in assay [10], > 100 µM (inactive); in assay [11] it was 95.7 µM (inactive); in [12], > 100 µM (inactive). Also, the GI50 in [13], in [14], in assay [15], in assay [16], in assay [17] and in assay [18] was > 100 µM (inactive) throughout. For the same molecule, the GI50 in assay [19] and in [20] was > 100 µM (inactive) throughout.

Consider `CC1=C(C(=O)c2ccccc2)C23C(=O)N(c4ccccc4)C(=O)C2=C(O)C=CC3(O)N1` (stereo not given), for which the GI50 is 44.2 µM (inactive) in assay [1]; 76.6 µM (inactive) in assay [2]; 28.1 µM (inactive) in assay [3]; 10.9 µM (inactive) in assay [4]; 32.5 µM (inactive) in assay [5]; 37.9 µM (inactive) in assay [6]. Also, the GI50 in assay [7] is 16.6 µM (inactive); in [8], 44.1 µM (inactive); in assay [9] it was 40 µM (inactive); in assay [10] it was 38.3 µM (inactive); in assay [11], 15.4 µM (inactive); in assay [12] it was 35.1 µM (inactive). Also, the GI50 in [13] is 44.5 µM (inactive); in assay [14], 35 µM (inactive); in assay [15] it was 30.3 µM (inactive); in assay [16], 37.9 µM (inactive); in [17], 40.2 µM (inactive); in [18] it was > 100 µM (inactive). Further, the figures for the GI50 in assay [19] and in [20] were 47.2 µM (inactive) and 28.9 µM (inactive), respectively.

`CCOC(=O)C1OC(C2(C)OC3(OC4(C=CC3O)OC(C(C)C(=O)C(C)C(O)C(C)CC(C)c3c(Cl)cc(C)c(O)c3C(=O)O)C(C)CC4C)C(C)C2OC)CC1O` (stereo not given): the GI50 in assay [1] was 0.507 µM (active); in assay [2], 1.09 µM (active); in [3], 0.189 µM (active); in assay [4] it was 0.505 µM (active); in assay [5], 0.0535 µM (active); in [6], 0.693 µM (active). Also, the GI50 in assay [7] is 0.542 µM (active); in assay [8] it was 0.598 µM (active); in assay [9], 0.286 µM (active); in assay [10] it was 0.181 µM (active); in [11], 0.207 µM (active); in [12] it was 0.0828 µM (active). The GI50 was 0.577 µM (active) in assay [13]; 0.454 µM (active) in assay [14]; 0.207 µM (active) in assay [15]; 0.249 µM (active) in assay [16]; 0.48 µM (active) in [17]; 0.982 µM (active) in [18]. Further, the GI50 is 2.69 µM (inactive) in assay [19] and 0.752 µM (active) in assay [20].

With `CN1CCN(C(=O)c2cn(Cc3cncn3Cc3ccc4c(c3)OCO4)cc2-c2cccc3ccccc23)CC1`, the GI50 in [1] is 12.2 µM (inactive); in [2], 15.3 µM (inactive); in [3], 7.73 µM (inactive); in assay [4], 3.32 µM (inactive); in assay [5], 26.9 µM (inactive); in assay [6], 4.89 µM (inactive). In addition, the GI50 in assay [7] was 0.337 µM (active); in assay [8], 37.4 µM (inactive); in [9], 0.198 µM (active); in assay [10], 14.2 µM (inactive); in assay [11] it was 0.0237 µM (active); in assay [12], 4.71 µM (inactive). The GI50 was 14 µM (inactive) in assay [13]; 20.9 µM (inactive) in assay [14]; 17.5 µM (inactive) in assay [15]; 14.3 µM (inactive) in assay [16]; 0.273 µM (active) in [17]; 23.2 µM (inactive) in assay [18]. Also, the figures for the GI50 in assay [19] and in [20] were 24.8 µM (inactive) and 20.5 µM (inactive), respectively.

As to `CCCCCCCCCCCCCCCCSS(C)(=O)=O`, the GI50 is 42.8 µM (inactive) in assay [1]; > 91.2 µM (inactive) in assay [2]; 55 µM (inactive) in [3]; 9.64 µM (inactive) in assay [4]; > 100 µM (inactive) in [5]; 10.6 µM (inactive) in assay [6]. Besides, the GI50 was 4.07 µM (inactive) in assay [7]; > 100 µM (inactive) in assay [8]; > 100 µM (inactive) in assay [9]; 27.6 µM (inactive) in assay [10]; 4.65 µM (inactive) in assay [11]; 3.03 µM (inactive) in assay [12]. The GI50 in [13] was 42.2 µM (inactive); in [14] it was 7.06 µM (inactive); in [15] it was 37.8 µM (inactive); in assay [16], > 100 µM (inactive); in assay [17], 9.42 µM (inactive); in assay [18] it was > 100 µM (inactive). Besides, the GI50 in assay [19] is > 91 µM (inactive); in [20], 10.1 µM (inactive).

Consider `O=C(c1ccc(Cl)cc1)N(Cc1cccnc1)C(=S)N(Cc1cccnc1)C(=O)c1ccc(Cl)cc1`, for which the GI50 is 36.1 µM (inactive) in [1]; 50.8 µM (inactive) in assay [2]; 22.7 µM (inactive) in assay [3]; 22.9 µM (inactive) in [4]; 50.7 µM (inactive) in [5]; 27.1 µM (inactive) in assay [6]. Moreover, the GI50 is 33.2 µM (inactive) in [7]; 31.1 µM (inactive) in [8]; 40.2 µM (inactive) in [9]; 29.7 µM (inactive) in assay [10]; 50.4 µM (inactive) in assay [11]; 50 µM (inactive) in assay [12]. Also, the GI50 in assay [13] was 33.6 µM (inactive); in [14] it was 21.1 µM (inactive); in assay [15], 18.6 µM (inactive); in [16], 41.5 µM (inactive); in assay [17] it was 22.7 µM (inactive); in assay [18], 48.4 µM (inactive). Moreover, the values for the GI50 in assay [19] and in assay [20] were 36.7 µM (inactive) and 42.4 µM (inactive), respectively.

Turning to `COc1cc(OC)c2c(=O)c3cccc(C)c3n(C)c2c1`, the GI50 in assay [1] was > 100 µM (inactive); in assay [2], > 100 µM (inactive); in assay [3] it was 84.3 µM (inactive); in assay [4], 25.8 µM (inactive); in [5] it was > 100 µM (inactive); in assay [6], 48.3 µM (inactive). Also, the GI50 in [7] is 30.5 µM (inactive); in assay [8], 57.3 µM (inactive); in assay [9], 50.7 µM (inactive); in assay [10], 34 µM (inactive); in assay [11] it was 37 µM (inactive); in [12], 36.3 µM (inactive). Further, the GI50 is 43.5 µM (inactive) in [13]; > 100 µM (inactive) in assay [14]; > 100 µM (inactive) in [15]; > 100 µM (inactive) in [16]; 44 µM (inactive) in assay [17]; 58.7 µM (inactive) in assay [18]. The GI50 in assay [19] and in assay [20] was > 100 µM (inactive) each time.

Take `O=[N+]([O-])c1cc(F)ccc1Sc1ccccc1`: the GI50 in [1], in [2], in assay [3], in [4], in assay [5] and in assay [6] was > 10 µM (inactive) throughout. Also, the GI50 in assay [7], in [8], in assay [9], in assay [10], in [11] and in [12] was > 10 µM (inactive) each time. For the same molecule, the GI50 in [13], in [14], in [15], in assay [16], in assay [17] and in assay [18] was > 10 µM (inactive) in each case. Moreover, the GI50 in assay [19] and in [20] was > 10 µM (inactive) each time.
